The target of one series is GSK3β (Homo sapiens, UniProt P49841). Nature of the series: Inhibitory activity against GSK3β (33P-ATP phosphorylation of prephosphorylated GS1 peptide, two protocols). It counts as biochemical. The conditions noted are these: first or second protocol not specified. The procedure:
Inhibitory Activity of the Medicament of the Present Invention Against GSK3β
Two different protocols can be used.
In a first protocol: 7.5 μM of prephosphorylated GS1 peptide and 10 μM ATP (containing 300,000 cpm of ^33P-ATP) were incubated in 25 mM Tris-HCl, pH 7.5, 0.6 mM DTT, 6 mM MgCl2, 0.6 mM EGTA, 0.05 mg/ml BSA buffer for 1 hour at room temperature in the presence of GSK3beta (total reaction volume: 100 microliters).
In a second protocol: 4.1 μM of prephosphorylated GS1 peptide and 42 μM ATP (containing 260,000 cpm ^33P-ATP) were incubated in 80 mM Mes-NaOH, pH 6.5, 1 mM Mg acetate, 0.5 mM EGTA, 5 mM 2-mercaptoethanol, 0.02% Tween 20, 10% glycerol buffer for 2 hours at room temperature in the presence of GSK3beta.
Inhibitors were solubilized in DMSO (final solvent concentration in the reaction medium, 1%).
The reaction was stopped with 100 microliters of a solution made of 25 g polyphosphoric acid (85% P2O5), 126 ml 85% H3PO4, […] to 500 ml and then diluted to 1:100 before use. An aliquot of the reaction mixture was then transferred to Whatman P81 cation exchange filters and rinsed with the solution described above. Incorporated ^33P radioactivity was determined by liquid scintillation spectrometry.
The phosphorylated GS-1 peptide had the following sequence: NH2-[…](P)EDEE-COOH. SEQ ID NO: 1 (Woodgett, J. R. (1989) Analytical Biochemistry 180, 237-241.

Sequence of GSK3β (P49841 whole entry): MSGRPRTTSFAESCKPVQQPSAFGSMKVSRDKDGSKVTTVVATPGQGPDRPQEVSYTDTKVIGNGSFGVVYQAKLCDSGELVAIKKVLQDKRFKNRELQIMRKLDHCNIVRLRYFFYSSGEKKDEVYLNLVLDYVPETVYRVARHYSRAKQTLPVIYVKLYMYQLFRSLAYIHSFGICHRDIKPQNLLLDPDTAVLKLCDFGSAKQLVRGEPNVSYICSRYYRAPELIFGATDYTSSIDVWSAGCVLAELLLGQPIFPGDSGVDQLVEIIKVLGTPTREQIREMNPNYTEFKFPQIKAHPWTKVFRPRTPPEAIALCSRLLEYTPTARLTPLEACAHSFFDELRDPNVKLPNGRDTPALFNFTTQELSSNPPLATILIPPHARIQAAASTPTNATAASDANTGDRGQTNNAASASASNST

Usually IC50 stands for the point on the concentration scale where inhibition reaches its midpoint. The melting point is the temperature, or range, at which the solid turns liquid. `Cn1c(CNC(=O)c2ccc3ncccc3n2)nc(-c2ccncn2)cc1=O` [compound 4, [1,5]Naphthyridine-2-carboxylic acid (1-methyl-6-oxo-1,6-dihydro-[4,4]bipyrimidinyl-2-ylmethyl)-amide] gave a melting point of 317 to 319 °C. In addition, the IC50 at GSK3β came out at 5 nM.

For the origin of these results see patent US8598175B2, “Heteroarylamide pyrimidone derivatives” (Sanofi, priority 2007, dated 2013).
